Here are results for 13 molecules from patent US20260077071A1, “Targeted Delivery of Theranostic Agents” (Peter MacCallum Cancer Institute, priority 2022, published 2026).

Each structure is given as a SMILES string. Read-outs that look alike come from different tables or passages of the source. Square brackets hold non-standard residues; d marks the D form. Peptide text beside a SMILES is read from it. * marks the point of attachment. DOTA = O=C(O)CN1CCN(CC(=O)O)CCN(CC(=O)*)CCN(CC(=O)O)CC1; Phe(3,4,5-F3) = N[C@@H](Cc1cc(F)c(F)c(F)c1)C(=O)O; Phe(F5) = N[C@@H](Cc1c(F)c(F)c(F)c(F)c1F)C(=O)O; Phe(3,4-F2) = N[C@@H](Cc1ccc(F)c(F)c1)C(=O)O; NMe1Nal = CN[C@@H](Cc1cccc2ccccc12)C(=O)O; Phe(4-NH2) = Nc1ccc(C[C@H](N)C(=O)O)cc1; Phe(3-F) = N[C@@H](Cc1cccc(F)c1)C(=O)O; Phe(4-F) = N[C@@H](Cc1ccc(F)cc1)C(=O)O; 1Nal = N[C@@H](Cc1cccc2ccccc12)C(=O)O; NMeNle = CCCC[C@H](NC)C(=O)O; Sar = CNCC(=O)O

The target of this test is T1, human full-length CCK-2 receptor (Homo sapiens, UniProt P32239).
T1 construct: stably transfected to over-express the human full-length CCK-2 receptor (A431-CCK-2R); expressed in transfected cells
T1 sequence (P32239 1-447): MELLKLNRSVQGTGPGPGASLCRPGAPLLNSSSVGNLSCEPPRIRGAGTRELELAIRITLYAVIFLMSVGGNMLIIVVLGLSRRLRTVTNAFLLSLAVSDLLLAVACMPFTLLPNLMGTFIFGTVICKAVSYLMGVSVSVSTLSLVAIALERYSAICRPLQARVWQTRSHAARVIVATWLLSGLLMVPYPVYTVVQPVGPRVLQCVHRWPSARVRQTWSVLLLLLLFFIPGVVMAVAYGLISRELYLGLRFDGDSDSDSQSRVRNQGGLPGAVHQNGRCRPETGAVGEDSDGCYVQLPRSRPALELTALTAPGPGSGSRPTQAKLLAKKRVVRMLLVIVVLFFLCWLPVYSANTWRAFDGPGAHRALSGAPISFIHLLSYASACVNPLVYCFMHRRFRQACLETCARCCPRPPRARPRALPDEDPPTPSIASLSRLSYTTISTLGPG
As to the kind of experiment: Competitive ligand binding against [^177Lu]Lu-DOTA-CP04 in A431-CCK-2R cells. Conditions: for loss of binding affinity / activity: D-Ala analogue versus baseline comparative example-1. The protocol:
CCK-2 receptor binding experiments were conducted using A431 (human epidermoid carcinoma) cells stably transfected to over-express the human full-length CCK-2 receptor (A431-CCK-2R). As a negative control, A431 cells stably transfected with an empty vector were analysed simultaneously (A431-EV). A431 cells were maintained in DMEM (Gibco, Australia) media supplemented with 10% foetal calf serum and 250 μg/mL G418 as described previously (Aloj L, et al., J Nucl Med., 2004, Mar; 45(3), 485-94). The affinity of peptides for the CCK-2R was evaluated using competitive binding assays against [^177Lu]Lu-DOTA-CP04 in A431-CCK-2R cells. Briefly, 48 h before the experiment cells were plated at a density of 650,000 cells per well in 6 well plates. On the day of the experiment the peptides were diluted in DMEM supplemented with 1% foetal calf serum to at least 7 different concentrations (0-400 nM) and approximately 50,000 cpm of [^177Lu]Lu-DOTA-CP04 was added to each dilution. Cells were washed twice in ice-cold binding buffer (DMEM supplemented with 1% foetal calf serum) and resuspended in 1.5 mL of the pre-prepared compound mix before being incubated at 37° C. for 1 h. Post-incubation the media was removed and kept for analysis (unbound fraction) and the cells were washed twice in ice-cold binding buffer, which was pooled with the unbound fraction. Finally, 1 M NaOH was added to the cells and allowed to incubate for 5 min before lysates were collected (bound fraction). A small volume of lysate was kept aside to determine protein concentration using the Pierce® BCA protein assay kit (Thermo Fisher, Australia). All samples were analysed using the Perkin Elmer 2480 Wizard2™ gamma counter (PerkinElmer, Massachusetts, USA) and were normalised according to protein concentration. Half-maximal inhibitory concentrations (IC50) were determined using nonlinear regression calculated using GraphPad Prism Software (GraphPad Software, California, USA).
The compounds were evaluated for their ability to disrupt the binding between CCK-2 receptor (CCK-2R) and [^177Lu]Lu-DOTA-CP04 using the methodology described above and compared to comparative example-2 (FIG. 2; Table 5).

Where [1] appears, read: substituted-phenylalanine peptides based on Cmp ex-1 (Table 3), read-out: IC50.
[2] abbreviates: modified peptides based on Peptide C (Table 4), read-out: IC50.
Setting [3] is: D-Ala substituted peptides (Table 2), against [^177Lu]Lu-DOTA-CP04 in A431-CCK-2R cells, read-out: IC50.
Setting [4] is: ^natGa chelated DOTA-compounds based on Peptide C (Table 5), read-out: IC50.

For `CCCC[C@@H](C(=O)N[C@@H](CC(=O)O)C(=O)N[C@@H](Cc1c(F)c(F)c(F)c(F)c1F)C(N)=O)N(C)C(=O)[C@H](Cc1c[nH]c2ccccc12)NC(=O)CN(C)C(=O)[C@H](Cc1ccc(O)cc1)NC(=O)[C@H](C)NC(=O)[C@@H](CCC(=O)O)NC(=O)[C@@H](CCC(=O)O)NC(=O)[C@@H](CCC(=O)O)NC(=O)[C@@H](CCC(=O)O)NC(=O)[C@@H](CCC(=O)O)NC(=O)[C@H](N)CCC(=O)O` [J] (H-[dE][dE][dE][dE][dE][dE]AY[Sar]W[NMeNle]D[Phe(F5)]-NH2; N-terminus assumed), under setting [1], the IC50 – broadly, the point on the concentration scale where inhibition reaches its midpoint – worked out at 1.92 nM.
`CCCC[C@@H](C(=O)N[C@@H](CC(=O)O)C(=O)N[C@@H](Cc1cccc2ccccc12)C(N)=O)N(C)C(=O)[C@H](Cc1c[nH]c2ccccc12)NC(=O)CN(C)C(=O)[C@H](Cc1ccc(O)cc1)NC(=O)[C@H](C)NC(=O)[C@@H](CCC(=O)O)NC(=O)[C@@H](CCC(=O)O)NC(=O)[C@@H](CCC(=O)O)NC(=O)[C@@H](CCC(=O)O)NC(=O)[C@@H](CCC(=O)O)NC(=O)[C@@H](C)N` [Peptide A] (H-[dA][dE][dE][dE][dE][dE]AY[Sar]W[NMeNle]D[1Nal]-NH2): the “loss of binding affinity / activity” value was “greater than 10 fold”.
Consider `CCCC[C@@H](C(=O)N[C@@H](CC(=O)O)C(=O)N[C@@H](Cc1ccc(F)cc1)C(N)=O)N(C)C(=O)[C@H](Cc1c[nH]c2ccccc12)NC(=O)CN(C)C(=O)[C@H](Cc1ccc(O)cc1)NC(=O)[C@H](C)NC(=O)[C@@H](CCC(=O)O)NC(=O)[C@@H](CCC(=O)O)NC(=O)[C@@H](CCC(=O)O)NC(=O)[C@@H](CCC(=O)O)NC(=O)[C@@H](CCC(=O)O)NC(=O)[C@H](N)CCC(=O)O` [G] (H-[dE][dE][dE][dE][dE][dE]AY[Sar]W[NMeNle]D[Phe(4-F)]-NH2), for which the IC50 under setting [1] was found to be 0.92 nM.
On to `CCCC[C@@H](C(=O)N[C@@H](CC(=O)O)C(=O)N[C@@H](Cc1cccc(F)c1)C(N)=O)N(C)C(=O)[C@H](Cc1c[nH]c2ccccc12)NC(=O)CN(C)C(=O)[C@H](Cc1ccc(O)cc1)NC(=O)[C@H](C)NC(=O)[C@@H](CCC(=O)O)NC(=O)[C@@H](CCC(=O)O)NC(=O)[C@@H](CCC(=O)O)NC(=O)[C@@H](C)NC(=O)[C@@H](CCC(=O)O)NC(=O)[C@H](N)CCC(=O)O` [U] (H-[dE][dE][dA][dE][dE][dE]AY[Sar]W[NMeNle]D[Phe(3-F)]-NH2; N-terminus assumed), for which, under setting [2], the IC50 amounted to 0.305 ± 0.013 nM.
For the molecule `CCCC[C@@H](C(=O)N[C@@H](CC(=O)O)C(=O)N[C@@H](Cc1ccc(N)cc1)C(N)=O)N(C)C(=O)[C@H](Cc1c[nH]c2ccccc12)NC(=O)CN(C)C(=O)[C@H](Cc1ccc(O)cc1)NC(=O)[C@H](C)NC(=O)[C@@H](CCC(=O)O)NC(=O)[C@@H](CCC(=O)O)NC(=O)[C@@H](CCC(=O)O)NC(=O)[C@@H](C)NC(=O)[C@@H](CCC(=O)O)NC(=O)[C@H](N)CCC(=O)O` [M] (H-[dE][dE][dA][dE][dE][dE]AY[Sar]W[NMeNle]D[Phe(4-NH2)]-NH2; N-terminus assumed), the IC50 under setting [2] turned out to be 0.741 ± 0.064 nM.
As to `CCCC[C@@H](C(=O)N[C@@H](CC(=O)O)C(=O)N[C@@H](Cc1cccc2ccccc12)C(N)=O)N(C)C(=O)[C@H](Cc1c[nH]c2ccccc12)NC(=O)CN(C)C(=O)[C@H](Cc1ccc(O)cc1)NC(=O)[C@H](C)NC(=O)[C@@H](CCC(=O)O)NC(=O)[C@@H](CCC(=O)O)NC(=O)[C@@H](C)NC(=O)[C@@H](CCC(=O)O)NC(=O)[C@@H](CCC(=O)O)NC(=O)[C@H](N)CCC(=O)O` [D] (H-[dE][dE][dE][dA][dE][dE]AY[Sar]W[NMeNle]D[1Nal]-NH2), the “loss of binding affinity / activity” value was “approx. 5 fold”. Also, the IC50 under setting [3] was determined as 1.62 nM.
With `CCCC[C@@H](C(=O)N[C@@H](CC(=O)O)C(=O)N[C@@H](Cc1ccc(F)c(F)c1)C(N)=O)N(C)C(=O)[C@H](Cc1c[nH]c2ccccc12)NC(=O)CN(C)C(=O)[C@H](Cc1ccc(O)cc1)NC(=O)[C@H](C)NC(=O)[C@@H](CCC(=O)O)NC(=O)[C@@H](CCC(=O)O)NC(=O)[C@@H](CCC(=O)O)NC(=O)[C@@H](C)NC(=O)[C@@H](CCC(=O)O)NC(=O)[C@H](N)CCC(=O)O` [Peptide S] (H-[dE][dE][dA][dE][dE][dE]AY[Sar]W[NMeNle]D[Phe(3,4-F2)]-NH2; N-terminus assumed), the IC50 was 2.66 ± 0.226 nM.
On to `CCCC[C@@H](C(=O)N[C@@H](CC(=O)O)C(=O)N[C@@H](Cc1ccc(O)cc1)C(N)=O)N(C)C(=O)[C@H](Cc1c[nH]c2ccccc12)NC(=O)CN(C)C(=O)[C@H](Cc1ccc(O)cc1)NC(=O)[C@H](C)NC(=O)[C@@H](CCC(=O)O)NC(=O)[C@@H](CCC(=O)O)NC(=O)[C@@H](CCC(=O)O)NC(=O)[C@@H](C)NC(=O)[C@@H](CCC(=O)O)NC(=O)[C@H](N)CCC(=O)O` [Peptide R] (H-[dE][dE][dA][dE][dE][dE]AY[Sar]W[NMeNle]DY-NH2; N-terminus assumed), for which, under setting [2], the IC50 worked out at 1.15 ± 0.096 nM.
The same measure, in the same setting: then `CCCC[C@@H](C(=O)N[C@@H](CC(=O)O)C(=O)N[C@@H](Cc1cc(F)c(F)c(F)c1)C(N)=O)N(C)C(=O)[C@H](Cc1c[nH]c2ccccc12)NC(=O)CN(C)C(=O)[C@H](Cc1ccc(O)cc1)NC(=O)[C@H](C)NC(=O)[C@@H](CCC(=O)O)NC(=O)[C@@H](CCC(=O)O)NC(=O)[C@@H](CCC(=O)O)NC(=O)[C@@H](C)NC(=O)[C@@H](CCC(=O)O)NC(=O)[C@H](N)CCC(=O)O` [N] (H-[dE][dE][dA][dE][dE][dE]AY[Sar]W[NMeNle]D[Phe(3,4,5-F3)]-NH2; N-terminus assumed), with 0.444 ± 0.032 nM.
For the molecule `CCCC[C@@H](C(=O)N[C@@H](CC(=O)O)C(=O)N(C)[C@@H](Cc1cccc2ccccc12)C(N)=O)N(C)C(=O)[C@H](Cc1c[nH]c2ccccc12)NC(=O)CN(C)C(=O)[C@H](Cc1ccc(O)cc1)NC(=O)[C@H](C)NC(=O)[C@@H](CCC(=O)O)NC(=O)[C@@H](CCC(=O)O)NC(=O)[C@@H](CCC(=O)O)NC(=O)[C@@H](CCC(=O)O)NC(=O)[C@@H](CCC(=O)O)NC(=O)[C@@H](CCC(=O)O)NC(=O)CN1CCN(CC(=O)O)CCN(CC(=O)O)CCN(CC(=O)O)CC1` [^natGa-Cmp ex-2, metal not drawn, reference compound] ({DOTA}-[dE][dE][dE][dE][dE][dE]AY[Sar]W[NMeNle]D[NMe1Nal]-NH2), under setting [4], the IC50 came out at 0.158 nM.
Same read-out and setting: with `CCCC[C@@H](C(=O)N[C@@H](CC(=O)O)C(=O)N[C@@H](Cc1ccccc1)C(N)=O)N(C)C(=O)[C@H](Cc1c[nH]c2ccccc12)NC(=O)CN(C)C(=O)[C@H](Cc1ccc(O)cc1)NC(=O)[C@H](C)NC(=O)[C@@H](CCC(=O)O)NC(=O)[C@@H](CCC(=O)O)NC(=O)[C@@H](CCC(=O)O)NC(=O)[C@@H](C)NC(=O)[C@@H](CCC(=O)O)NC(=O)[C@@H](CCC(=O)O)NC(=O)CN1CCN(CC(=O)O)CCN(CC(=O)O)CCN(CC(=O)O)CC1` [^natGa-3, metal not drawn] ({DOTA}-[dE][dE][dA][dE][dE][dE]AY[Sar]W[NMeNle]DF-NH2) the figure was 0.042 nM; with `CCCC[C@@H](C(=O)N[C@@H](CC(=O)O)C(=O)N[C@@H](Cc1cccc2ccccc12)C(N)=O)N(C)C(=O)[C@H](Cc1c[nH]c2ccccc12)NC(=O)CN(C)C(=O)[C@H](Cc1ccc(O)cc1)NC(=O)[C@H](C)NC(=O)[C@@H](CCC(=O)O)NC(=O)[C@@H](CCC(=O)O)NC(=O)[C@@H](CCC(=O)O)NC(=O)[C@@H](C)NC(=O)[C@@H](CCC(=O)O)NC(=O)[C@@H](CCC(=O)O)NC(=O)CN1CCN(CC(=O)O)CCN(CC(=O)O)CCN(CC(=O)O)CC1` [^natGa-1, metal not drawn] ({DOTA}-[dE][dE][dA][dE][dE][dE]AY[Sar]W[NMeNle]D[1Nal]-NH2), 0.08 nM.
In the case of `CCCC[C@@H](C(=O)N[C@@H](CC(=O)O)C(=O)N[C@@H](Cc1cccc2ccccc12)C(N)=O)N(C)C(=O)[C@H](Cc1c[nH]c2ccccc12)NC(=O)CN(C)C(=O)[C@H](Cc1ccc(O)cc1)NC(=O)[C@H](C)NC(=O)[C@@H](C)NC(=O)[C@@H](CCC(=O)O)NC(=O)[C@@H](CCC(=O)O)NC(=O)[C@@H](CCC(=O)O)NC(=O)[C@@H](CCC(=O)O)NC(=O)[C@H](N)CCC(=O)O` [F] (H-[dE][dE][dE][dE][dE][dA]AY[Sar]W[NMeNle]D[1Nal]-NH2), the “loss of binding affinity / activity” value is “approx. 5 fold”. In addition, the IC50 under setting [3] came out at 1.62 nM.
